The values below come from ChEMBL document CHEMBL1201862, “PubChem BioAssay data set” (2004).

Active and inactive are the calls of the source. For most assays here, no stated cut-off is given here; in the data, actives have a measured EC50 and inactives only a lower limit.

For experiment [1], the target named is T1, Calpain-2 catalytic subunit (Sus scrofa, UniProt P43367).
T1 sequence (P43367 whole entry): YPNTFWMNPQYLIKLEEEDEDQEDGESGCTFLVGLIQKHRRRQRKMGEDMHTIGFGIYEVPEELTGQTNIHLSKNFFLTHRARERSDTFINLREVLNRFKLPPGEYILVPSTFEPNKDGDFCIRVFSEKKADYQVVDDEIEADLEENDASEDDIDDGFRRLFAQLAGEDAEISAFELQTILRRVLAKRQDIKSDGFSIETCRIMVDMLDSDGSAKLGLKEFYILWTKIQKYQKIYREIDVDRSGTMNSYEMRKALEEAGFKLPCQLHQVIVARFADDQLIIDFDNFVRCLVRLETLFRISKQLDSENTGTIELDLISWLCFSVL
Briefly: pig calpain II inhibitor potency, dose response, biochemical, fluorogenic peptide substrate (AID 1420). In kind it is functional.

The subject of experiment [2] is H9c2. Description: cells. In kind it is functional, cell-based. The conditions noted are these: Rattus norvegicus, H9c2, Myocardium.
Experiment [3] deals with T2, Streptokinase A (Streptococcus pyogenes serotype M1, UniProt P10520).
T2 sequence (P10520 whole entry): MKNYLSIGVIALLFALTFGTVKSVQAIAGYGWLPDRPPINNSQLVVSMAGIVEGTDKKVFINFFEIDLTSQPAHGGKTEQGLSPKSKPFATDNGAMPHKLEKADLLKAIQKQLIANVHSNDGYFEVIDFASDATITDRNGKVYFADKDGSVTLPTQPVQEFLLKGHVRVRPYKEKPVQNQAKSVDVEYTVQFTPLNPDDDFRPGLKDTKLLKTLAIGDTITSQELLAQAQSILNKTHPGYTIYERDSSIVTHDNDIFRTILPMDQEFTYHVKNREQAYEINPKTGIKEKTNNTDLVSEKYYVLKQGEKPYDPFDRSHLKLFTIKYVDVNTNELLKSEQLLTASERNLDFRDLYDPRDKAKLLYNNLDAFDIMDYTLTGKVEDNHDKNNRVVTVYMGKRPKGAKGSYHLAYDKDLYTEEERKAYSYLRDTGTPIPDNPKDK
Description: S. pyogenes streptokinase expression inhibitors, potency, dose response, plasminogen activation absorbance, OD405 (AID 1914).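 Further: secreted streptokinase activity via plasminogen activation per viability signal from cell pellet.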 It is filed as functional, Streptococcus pyogenes M1 GAS.

A short description of experiment [4]: HEp-2 cell cytotoxicity, dose response, cytotoxicity control for RSV inhibitor project, HTS (AID 2410). In kind it is functional. The conditions noted are these: human respiratory syncytial virus.
The subject of experiment [5] is Streptococcus. Briefly: Group A Streptococcus viability loss, dose response, counter-screen for streptokinase expression inhibitor project, luminescence, BacTiterGlo (AID 1915).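 Further: potency for reduction of bacterial viability or growth.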 In kind it is functional, organism-based.
The subject of experiment [6] is Streptococcus sp. 'group A'. Briefly: growth inhibition of control SK(-) GAS strain, dose response, counter-screen for streptokinase expression inhibitor project, luminescence, kanamycin, BacTiterGlo, confirmation (AID 1900). It is filed as functional, organism-based. In general terms: A counterscreen serves to expose hits that act by an unwanted route or on another target.

The nature of experiment [7]: Luminescence Cell-Based Dose Response HTS to Identify Inhibitors of 5'UTR Stem-Loop Driven Prion Protein mRNA Translation in H4 Neuroglioblastoma Cells. [Related pubchem assays: 1827 (Project Summary), 1813 (Primary HTS)]. It is filed as functional.
The nature of experiment [8]: inhibitors of firefly luciferase expression or activity, dose response, H4 neuroglioma cells, luminescence (AID 1990). It is filed as functional, cell-based.
A short description of experiment [9]: inhibitors of SNCA 5'UTR-driven reporter translation, confirmation, H4 neuroglioma cells, luminescence (AID 1988). In kind it is functional, cell-based.
The target in experiment [10] is T3, Heat shock factor protein 1 (Mus musculus, UniProt P38532).
T3 sequence (P38532 whole entry): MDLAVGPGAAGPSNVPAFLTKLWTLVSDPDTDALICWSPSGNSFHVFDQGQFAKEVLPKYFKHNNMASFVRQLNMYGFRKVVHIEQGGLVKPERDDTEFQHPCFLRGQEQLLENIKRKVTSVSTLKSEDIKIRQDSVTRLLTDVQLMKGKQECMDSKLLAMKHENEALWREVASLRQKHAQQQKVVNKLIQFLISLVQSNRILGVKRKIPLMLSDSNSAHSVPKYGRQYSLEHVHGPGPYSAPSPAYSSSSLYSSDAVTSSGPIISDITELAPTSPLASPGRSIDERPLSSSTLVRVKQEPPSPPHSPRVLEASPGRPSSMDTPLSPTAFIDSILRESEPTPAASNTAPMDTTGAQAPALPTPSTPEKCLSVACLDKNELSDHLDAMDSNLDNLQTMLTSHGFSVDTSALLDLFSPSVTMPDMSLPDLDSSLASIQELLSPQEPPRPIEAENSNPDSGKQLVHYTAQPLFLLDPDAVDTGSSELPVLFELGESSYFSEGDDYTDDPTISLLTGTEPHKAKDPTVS
Description: inhibition of MG132-induced HSE-luciferase signal, confirmation, cell-based, NIH3T3, luminescence, dose retest (AID 2382).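 Further: NIH3T3 fibroblasts with HSF1-driven luciferase reporter stressed by proteasome inhibitor MG132; luminescence from HSF1-driven luciferase expression after 8 hours of MG132 stress.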 It is filed as functional.

The target in experiment [11] is T4, Corticotropin-releasing factor receptor 2/Corticotropin-releasing factor-binding protein (Homo sapiens, UniProt P24387+Q13324).
T4 sequence (Q13324 whole entry): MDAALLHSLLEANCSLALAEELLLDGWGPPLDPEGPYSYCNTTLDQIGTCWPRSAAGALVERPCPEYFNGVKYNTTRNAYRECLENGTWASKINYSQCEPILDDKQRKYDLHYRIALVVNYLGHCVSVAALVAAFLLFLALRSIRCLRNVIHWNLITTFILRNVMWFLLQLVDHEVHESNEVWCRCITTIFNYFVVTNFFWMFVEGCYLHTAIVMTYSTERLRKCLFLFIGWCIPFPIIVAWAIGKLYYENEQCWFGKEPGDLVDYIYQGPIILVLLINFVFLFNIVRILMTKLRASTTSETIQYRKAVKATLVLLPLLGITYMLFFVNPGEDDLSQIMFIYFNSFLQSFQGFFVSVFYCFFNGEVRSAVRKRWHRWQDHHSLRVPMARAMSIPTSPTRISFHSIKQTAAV
T4 sequence (P24387 whole entry): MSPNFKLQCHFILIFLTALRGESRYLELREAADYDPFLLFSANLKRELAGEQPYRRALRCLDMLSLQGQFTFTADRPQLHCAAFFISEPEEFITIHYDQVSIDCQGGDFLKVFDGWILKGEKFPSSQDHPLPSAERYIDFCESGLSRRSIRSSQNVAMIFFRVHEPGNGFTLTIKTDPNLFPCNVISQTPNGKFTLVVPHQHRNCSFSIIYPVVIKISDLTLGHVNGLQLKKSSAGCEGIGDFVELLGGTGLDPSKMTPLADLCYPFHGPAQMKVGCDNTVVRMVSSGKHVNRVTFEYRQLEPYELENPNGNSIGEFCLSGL
Description: activators of CRF receptor 2 with binding protein – uHTS hits, confirmation (AID 602473). In kind it is functional. Conditions: read-out: EC50_Mean.

In experiment [12] the target is T4, Corticotropin-releasing factor receptor 2/Corticotropin-releasing factor-binding protein. Description: Dose Response confirmation of uHTS hits for small molecule antagonists of the CRF-binding protein and CRF-R2 receptor complex. It is filed as functional. Conditions: read-out: IC50_Mean.

For `COc1cccc(C2CC(c3ccccc3OC)n3nc(N)nc3N2)c1` (stereo not drawn), in experiment [1], the IC50 was > 50 µM (not active).

As to `O=C(c1cc(COc2c(F)cccc2F)on1)N1CCC(c2ccccc2Cl)C1` (stereo not drawn), the IC50 in experiment [1] is listed as 4.48 µM (not active).

In the case of `C/C(=N\O)[C@H]1CC[C@H]2[C@@H]3CC[C@H]4C/C(=N\O)CC[C@]4(C)[C@H]3C(C)(O)C[C@]12C` (stereo partly drawn), the IC50 in [2] was > 79 µM (inactive).

Turning to `COc1ccc(-c2nnc(SC(C)C(=O)Nc3cccc(Cl)c3)o2)cc1` (stereo not drawn), the IC50 in experiment [1] is recorded as 11.7 µM (not active).

What is called CC50 is the concentration that lowers cell viability or growth by half. In the case of `CCC(CC)C1=NN2C(=N)/C(=C\c3c(C)[nH]c4ccccc34)C(=O)N=C2S1`, the EC50 in [3] is 18.9 µM (inconclusive); in experiment [5], 53 µM (active); in experiment [6], 5.71 µM (active). The cytotoxic concentration (CC50) in experiment [4] is 16.1 µM (active).

For `Cn1c(=O)n(C)c2cc([N+](=O)[O-])c(N3CCN(CCO)CC3)cc21`, the IC50 in experiment [1] is reported as 7.45 µM (not active).

Regarding `Cc1ccc(C2CCN(C(S)=Nc3cccc(C)c3)C2)cc1` (stereo not drawn), in [1], the IC50 is listed as 9.72 µM (not active).

Take `COCCn1c(=O)c2c(nc3n2CC(C)CN3CCc2ccccc2)n(C)c1=O` (stereo not drawn): the EC50 in experiment [7], in experiment [8] and in [9] was > 120 µM (not active) each time.

With `Fc1ccc(-c2ccc(-c3nn4c(-c5ccco5)nnc4s3)o2)cc1`, the IC50 in [2] was 36.1 µM (inactive).

With `CCOc1ccccc1Cn1c(=O)sc2ccccc21`, in [1], the IC50 is 13.1 µM (not active).

On to `O=C1CCCc2c1[nH]c1ccc(Br)cc21`, for which the EC50 was 86.4 µM (active) in experiment [7], < 0.1 µM (active) in experiment [8] and 9.02 µM (active) in experiment [9].

As to `Cc1ccc(-n2c(SCC(=O)NCCC3=CCCCC3)nc3nnc(C)c-3c2N)cc1Cl`, the figures for the EC50 in experiment [7], in experiment [8] and in experiment [9] were 75.9 µM (active), 23 µM (active) and > 120 µM (not active), respectively.

As for `CCOC(=O)N1CCc2c(sc(NC(=O)CN3CCOCC3)c2C(=O)Nc2ccccc2)C1`, the IC50 in experiment [2] was 22.8 µM (active).

Take `CCC(CO)Nc1ncnc2c1cnn2-c1ccc(OC)cc1` (stereo not drawn): the EC50 in experiment [3], in experiment [5] and in experiment [6] was > 150 µM (not active) each time.

For the compound `Cc1ccc(-c2nnc(NCc3nc4ccccc4[nH]3)c3ccccc23)cc1S(=O)(=O)N1CCOCC1`, the IC50 in experiment [2] is > 79 µM (inactive).

On to `CC/N=C1\S/C(=C\c2ccc(-c3cccc(C(=O)O)c3)o2)C(=O)N1CC`, for which the EC50 was > 150 µM (not active) in experiment [3], 10.7 µM (active) in [5], > 195 µM (not active) in experiment [10] and 3.4 µM (active) in experiment [6].

As for `O=C(CN1C(=O)C2CC=CCC2C1=O)Nc1nc(-c2ccc(F)c(F)c2)cs1` (stereo not drawn), the IC50 in experiment [2] is > 79 µM (inactive).

Take `CC(=O)Nc1ccccc1C(=O)C(=O)Nc1cccc(C(=O)NCC2CCCO2)c1` (stereo not drawn): the IC50 in experiment [1] is 7.39 µM (not active).

As to `CCCNC(=O)c1ccc(N2CCC3(CC2)CC(c2ccccc2)=NO3)c(NC(=O)c2ccccc2)c1`, the EC50 is > 120 µM (not active) in [7], 18.7 µM (active) in experiment [8] and 12.7 µM (active) in experiment [9].

Regarding `Cc1ccc(S(=O)(=O)N2c3ccccc3OCC2C(C)(C)C)cc1` (stereo not drawn), the EC50 in [3] is 16.9 µM (active); in experiment [11] it was > 53 µM (inactive); in experiment [5], > 150 µM (not active); in [6], 16.4 µM (active). Also, the IC50 in experiment [12] is > 47.1 µM (inactive).

Take `COc1ccccc1NC(=O)/C(=C/c1cccs1)NC(=O)c1ccco1`: in experiment [1], the IC50 is on record as 26 µM (not active).

Consider `CC(C)N(Cc1nc(-c2ccccc2)no1)C(=O)CCCN1C(=O)c2ccccc2C1=O`, for which the IC50 in [1] is listed as > 50 µM (not active).

Consider `CCCn1c(C2CCCN2c2nc(-c3cccc(Br)c3)cs2)nc2cc(Cl)c(Cl)cc21` (stereo not drawn), for which the EC50 in experiment [3] was > 150 µM (not active); in [5], 56.5 µM (active); in experiment [6], 2.99 µM (active).

Turning to `O=c1c2ccccc2nc(-c2ccc(Cl)c(Cl)c2)n1O`, the IC50 in experiment [2] was > 79 µM (inactive).

As to `Cc1nn(Cc2ccc(Cl)cc2Cl)c(C)c1NC(=O)NC12CC3CC(CC(C3)C1)C2`, the EC50 in experiment [3] was 32.7 µM (active); in [5], 33.4 µM (active); in experiment [6], 7.54 µM (active).

Regarding `N#CCCN(C(=O)COC(=O)CCc1nc(O)c2ccccc2n1)c1ccc(F)cc1`, the IC50 in [2] was > 79 µM (inactive).

Turning to `CCOc1ccc(CC(=O)Nc2c(C(N)=O)oc3ccc(Br)cc23)cc1OCC`, in [2], the IC50 was > 79 µM (inactive).

`Cc1cccc(/C=C2\Sc3ccc(C(=O)N4CCC(C)CC4)cc3N(C)C2=O)c1`: the values for the EC50 in experiment [3], in experiment [5] and in [6] were 20.3 µM (active), 7.54 µM (active) and 3.11 µM (active), respectively.

In the case of `COc1ccc(CC(=O)NCC(=O)N/N=C/c2cc(Br)ccc2OC)cc1`, in experiment [2], the IC50 is 34.7 µM (inactive).

As for `CCN1CCN(c2nc(O)c3c(n2)CCCC3)CC1`, the IC50 in [2] is > 79 µM (inactive).

Take `CN(C)S(=O)(=O)n1cc(/C=C(\NC(=O)c2ccccc2F)C(=O)NCCN2CCOCC2)c2ccccc21`: the IC50 in [2] was > 79 µM (inactive).

Regarding `Fc1cccc(Cl)c1CSc1ccc(-c2cccnc2)nn1`, the IC50 in [1] is 29.7 µM (not active). Also, the CC50 in experiment [4] was > 50 µM (active).

Regarding `COc1ccc(OC)c(NC(=O)c2sc3ncnc(N4CCN(c5ccccn5)CC4)c3c2C)c1`, in [2], the IC50 is > 79 µM (inactive).

On to `Cc1cccc(OCCNc2ccc([N+](=O)[O-])cn2)c1`, for which the IC50 in experiment [1] is > 50 µM (not active).

Regarding `CC(Sc1nnc(-c2ccc(O)cc2)o1)C(=O)Nc1cccc2ccccc12` (stereo not drawn), in experiment [1], the IC50 is < 0.4 µM (not active).

Consider `Cc1nc2c(C(=O)Nc3ccc(N4CCCC(O)C4)cc3)snc2c(=O)[nH]1` (stereo not drawn), for which, in experiment [3], the EC50 was > 150 µM (not active).
